Data taken from ChEMBL document CHEMBL3763064, “Discovery of silyl proline containing HCV NS5A inhibitors with pan-genotype activity: SAR development” (Bioorg Med Chem Lett, 2016).

Assays:
Hepatitis C virus [1] = assay: Antiviral activity against HCV genotype 2a by replicon assay; format: functional, organism-based, Hepacivirus hominis
Hepatitis C virus [2] = assay: Antiviral activity against HCV genotype 1a expressing NS5A Y93H mutant by replicon assay; format: functional, organism-based, Hepacivirus hominis; conditions: subtype 1a
[3] = molecular target: T1, Nuclear receptor subfamily 1 group I member 2 (Homo sapiens, UniProt O75469); assay: Activation of PXR (unknown origin); format: ADME
T1 sequence (O75469 whole entry): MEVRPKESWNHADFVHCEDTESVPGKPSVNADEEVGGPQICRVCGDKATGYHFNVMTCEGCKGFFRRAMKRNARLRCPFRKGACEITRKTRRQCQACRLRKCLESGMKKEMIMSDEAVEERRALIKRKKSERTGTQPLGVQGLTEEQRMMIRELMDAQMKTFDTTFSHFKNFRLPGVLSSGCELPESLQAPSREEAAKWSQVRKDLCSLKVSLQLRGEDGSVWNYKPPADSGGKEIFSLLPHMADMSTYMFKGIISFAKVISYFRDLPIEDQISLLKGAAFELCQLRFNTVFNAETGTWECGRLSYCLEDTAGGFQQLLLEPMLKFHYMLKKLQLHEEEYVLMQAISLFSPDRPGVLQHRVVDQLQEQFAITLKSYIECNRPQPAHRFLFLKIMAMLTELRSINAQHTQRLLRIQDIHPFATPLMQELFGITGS

Hepatitis C virus [4] = assay: Antiviral activity against HCV genotype 1b by replicon assay; format: functional, organism-based, Hepacivirus hominis
Hepatitis C virus [5] = assay: Antiviral activity against HCV genotype 3a by replicon assay; format: functional, organism-based, Hepacivirus hominis
Hepatitis C virus [6] = assay: Antiviral activity against HCV genotype 1a by replicon assay; format: functional, organism-based, Hepacivirus hominis; conditions: subtype 1a
Hepatitis C virus [7] = assay: Antiviral activity against HCV genotype 2b by replicon assay; format: functional, organism-based, Hepacivirus hominis

COC(=O)N[C@H](C(=O)N1CCC[C@H]1c1ncc(-c2ccc(-c3cc4cc(-c5cnc([C@@H]6CCCN6C(=O)[C@@H](NC(=O)OC)C(C)C)[nH]5)ccc4o3)cc2)[nH]1)C(C)C
EC50 (Hepatitis C virus [1]): 0.4 nM
EC50 (Hepatitis C virus [2]): 24 nM
EC50 [3]: 3300 nM
EC50 (Hepatitis C virus [4]): 0.001 nM
EC50 (Hepatitis C virus [5]): 4 nM
EC50 (Hepatitis C virus [6]): 0.01 nM
EC50 (Hepatitis C virus [7]): 286 nM
